Test results from patent publication US20230054857A1, “FLAVONOID COMPOSITIONS AND RELATED USES” (Firmenich SA, priority 2020, published 2023).

Key:
Assay type in all cases: physicochemical
[1] = Stability of supersaturated naringenin solution (60 ppm): crystallization onset and final concentration
Procedure: To assess stability performance, the solution concentration of rhoifolin was determined over time. At specific time points 4 g of the solution were sampled, filtered and mixed with 1 g of acetonitrile. The solution was injected into a Vanquish UHPLC from Thermo Scientific coupled with a UV detector. The column was an Accucore Vanquish C18+(1.5 μm, 2.1×100 mm), eluted with a mixture of acetonitrile and water at 0.3 mL/min. The elution protocol was as follows: 5% acetonitrile (3 minutes), followed by a gradient from 5% to 80% of acetonitrile in 10 minutes. The corresponding peak of Rhoifolin was integrated, and the concentration was calculated based on a previously established calibration curve. The onset of crystallization is expressed as the point where the solution concentration passes below 95% of its initial value of 100%. The value was obtained by algorithmic curve fitting. […] In this example, and throughout “d” refers to days. Aqueous solutions of Berry extract were prepared at a concentration of 25 ppm, 50 ppm, 75 ppm, and 100 ppm by dissolving dry Berry extract in 99 g of buffer solution (citrate buffer, 100 mM, pH 2.8, 0.2% sodium benzoate). Then 1 gram of stock solution of naringenin in PG at 6000 ppm was added and mixed quickly with the aqueous phase. The samples were stored at 8° C., and aliquots were removed over the course of 40 days. A control solution of naringenin without Berry extract was also prepared. […] Aqueous solutions of Berry extract were prepared at a concentration of 100 ppm by dissolving dry Berry extract in 99 g of buffer solution (citrate buffer, 100 mM, pH 2.8, 0.2% sodium benzoate) with various additional additives. Then 1 gram of stock solution of naringenin in PG at 6000 ppm was added and mixed quickly with the aqueous phase. The samples were stored at 8° C., and aliquots were removed over the course of five months. A control solution of naringenin without Berry extract or additional additive was also prepared. A solution with Berry extract, but no additional additive was also prepared. The concentration of the additional additives is 100 ppm in each case. […] Saponin is Quillaja P (Firmenich SA). Aqueous solutions of black rice extracts were prepared at a concentration of 100 ppm by dissolving dry black rice extract in 99 g of buffer solution (citrate buffer, 100 mM, pH 2.8, 0.2% sodium benzoate) with various additional additives. Then 1 gram of stock solution of naringenin in PG at 6000 ppm was added and mixed quickly with the aqueous phase. The samples were stored at 8° C., and aliquots were removed over the course of five months. A control solution of naringenin without black rice extract or additional additive was also prepared. A solution with black rice extract, but no additional additive was also prepared. The concentration of the additional additives is 100 ppm in each case. […] Saponin is Quillaja P (Firmenich SA). Aqueous solutions were prepared in 99 gram of buffer solution (citrate buffer, 100 mM, pH 2.8, 0.2% sodium benzoate) with various additives. Then 1 gram of stock solution of naringenin in PG at 6000 ppm was added and mixed quickly with the aqueous phase. The samples were stored at 8° C., and aliquots were removed over the course of 5 months. A control solution of naringenin without additive was prepared. The concentration of the additives is 100 ppm in each case. […] Saponin is Quillaja P (Firmenich SA). Aqueous solutions of Berry extract were prepared at a concentration of 25 ppm by dissolving dry Berry extract in 99 g of buffer solution (citrate buffer, 100 mM, pH 2.8, 0.2% sodium benzoate) with various amounts of added saponin. Then 1 gram of stock solution of naringenin in PG at 6000 ppm was added and mixed quickly with the aqueous phase. The samples were stored at 8° C., and aliquots were removed over the course of five months. A control solution of naringenin without Berry extract or additional additive was also prepared. A solution with Berry extract, but no additional additive was also prepared. […]

[2] = Stability of supersaturated rhoifolin solution (20 ppm): solution concentration over time by UHPLC, onset of crystallization; settings: for 50% (d), days for 50% crystallization of rhoifolin / Fin. Conc. (ppm) / Onset / 50%: room temperature, 40 days
Procedure: Aqueous solutions of various anthocyanin extracts were prepared at concentrations of 100 ppm, 200 ppm, and 300 ppm by dissolving dry anthocyanin extract in 99 g of buffer solution (citrate buffer, 100 mM, pH 2.8, 0.2% sodium benzoate). Then 1 gram of stock solution of rhoifolin in propylene glycol (PG) at 2000 ppm was added and mixed quickly with the aqueous phase. The samples were left at room temperature, and aliquots were removed over the course of three months. A control solution of rhoifolin without anthocyanin was also prepared.
To assess stability performance, the solution concentration of rhoifolin was determined over time. At specific time points 4 g of the solution were sampled, filtered and mixed with 1 g of acetonitrile. The solution was injected into a Vanquish UHPLC from Thermo Scientific coupled with a UV detector. The column was an Accucore Vanquish C18+(1.5 μm, 2.1×100 mm), eluted with a mixture of acetonitrile and water at 0.3 mL/min. The elution protocol was as follows: 5% acetonitrile (3 minutes), followed by a gradient from 5% to 80% of acetonitrile in 10 minutes. The corresponding peak of Rhoifolin was integrated, and the concentration was calculated based on a previously established calibration curve. The onset of crystallization is expressed as the point where the solution concentration passes below 95% of its initial value of 100%. The value was obtained by algorithmic curve fitting. […] In this example, and throughout “d” refers to days.
Aqueous solutions of black rice extract were prepared at a concentration of 100 ppm by dissolving dry black rice extract in 99 g of buffer solution (citrate buffer, 100 mM, pH 2.8, 0.2% sodium benzoate) with various additional additives. Then 1 gram of stock solution of rhoifolin in PG at 2000 ppm was added and mixed quickly with the aqueous phase. The samples were left at room temperature, and aliquots were removed over the course of 40 days. A control solution of rhoifolin without black rice or additional additives was also prepared. A solution with black rice, but no additional additive was also prepared. The concentration of the additional additives is 100 ppm in each case. […] Saponin is Quillaja P (Firmenich SA).
Aqueous solutions were prepared in 99 gram of buffer solution (citrate buffer, 100 mM, pH 2.8, 0.2% sodium benzoate) with various additives. Then 1 gram of stock solution of rhoifolin in PG at 2000 ppm was added and mixed quickly with the aqueous phase. The samples were left at room temperature, and aliquots were removed over the course of 40 days. A control solution of rhoifolin without additive was prepared. The concentration of the additives is 100 ppm in each case. […] Saponin is Quillaja P (Firmenich SA).

[3] = Stability of supersaturated phloretin solution (60 ppm): crystallization onset and final concentration
Procedure: To assess stability performance, the solution concentration of rhoifolin was determined over time. At specific time points 4 g of the solution were sampled, filtered and mixed with 1 g of acetonitrile. The solution was injected into a Vanquish UHPLC from Thermo Scientific coupled with a UV detector. The column was an Accucore Vanquish C18+(1.5 μm, 2.1×100 mm), eluted with a mixture of acetonitrile and water at 0.3 mL/min. The elution protocol was as follows: 5% acetonitrile (3 minutes), followed by a gradient from 5% to 80% of acetonitrile in 10 minutes. The corresponding peak of Rhoifolin was integrated, and the concentration was calculated based on a previously established calibration curve. The onset of crystallization is expressed as the point where the solution concentration passes below 95% of its initial value of 100%. The value was obtained by algorithmic curve fitting. […] In this example, and throughout “d” refers to days. Aqueous solutions of Berry extract were prepared at a concentration of 25 ppm, 50 ppm, 75 ppm, and 100 ppm by dissolving dry Berry extract in 99 g of buffer solution (citrate buffer, 100 mM, pH 2.8, 0.2% sodium benzoate). Then 1 gram of stock solution of phloretin in PG at 6000 ppm was added and mixed quickly with the aqueous phase. The samples were stored at 8° C., and aliquots were removed over the course of three months. A control solution of phloretin without Berry extract was also prepared. […] Aqueous solutions were prepared in 99 gram of buffer solution (citrate buffer, 100 mM, pH 2.8, 0.2% sodium benzoate) with saponin. Then 1 gram of stock solution of phloretin in PG at 6000 ppm was added and mixed quickly with the aqueous phase. The samples stored at 8° C., and aliquots were removed over the course of 5 months. A control solution of phloretin without saponin was prepared. The concentration of saponin was 100 ppm. […] Saponin is Quillaja P (Firmenich SA).

[4] = Example 4 control: naringenin 60 ppm without Berry extract, pH 2.8, 8° C., 40 days
[5] = Example 5 control: naringenin 60 ppm without Berry extract or additive, 8° C., five months
[6] = Example 6 control: naringenin 60 ppm without black rice extract or additive, 8° C., five months
[7] = Example 7 control: naringenin 60 ppm without additive, 8° C., 5 months
[8] = Example 8 control: naringenin 60 ppm without Berry extract or additive, 8° C., five months
[9] = Example 9 control: naringenin 60 ppm without saponin, 8° C., five months
[10] = Example 2 control: rhoifolin 20 ppm without black rice extract or additive
[11] = Example 3 control: rhoifolin 20 ppm without additive
[12] = control: rhoifolin 20 ppm without extract, pH 2.8, room temperature
[13] = Example 10 control: phloretin 60 ppm without Berry extract, pH 2.8, 8° C., three months
[14] = Example 11 control: phloretin 60 ppm without saponin, 8° C., 5 months
[15] = naringenin 60 ppm + 100 ppm Berry extract + 100 ppm additive, 8° C., five months
[16] = naringenin 60 ppm + 100 ppm additive alone, 8° C., 5 months
[17] = naringenin 60 ppm + 100 ppm black rice extract + 100 ppm additive, 8° C., five months
[18] = rhoifolin 20 ppm + 100 ppm additive alone
[19] = rhoifolin 20 ppm + 100 ppm black rice extract + 100 ppm additive

O=C1C[C@@H](c2ccc(O)cc2)Oc2cc(O)cc(O)c21 [Naringenin, naringenin]
Fin. Conc. (ppm) [1, 4]: 24.6 ppm | Onset [1, 4]: 0.3 days | Fin. Conc. (ppm) [1, 5]: 24.6 ppm | Onset [1, 5]: 0.3 days | Fin. Conc. (ppm) [1, 6]: 24.6 ppm | Onset [1, 6]: 0.3 days | Fin. Conc. (ppm) [1, 7]: 24.6 ppm | Onset [1, 7]: 0.3 days | Fin. Conc. (ppm) [1, 8]: 24.6 ppm | Onset [1, 8]: 0.3 days | Fin. Conc. (ppm) [1, 9]: 24.6 ppm | Onset [1, 9]: 0.3 days

C[C@@H]1O[C@@H](O[C@H]2[C@H](Oc3cc(O)c4c(=O)cc(-c5ccc(O)cc5)oc4c3)O[C@H](CO)[C@@H](O)[C@@H]2O)[C@H](O)[C@H](O)[C@H]1O [Rhoifolin, rhoifolin]
50% (d), days for 50% crystallization of rhoifolin [2, 10]: 8.2 days | Fin. Conc. (ppm) [2, 10]: 3.32 ppm | Onset [2, 10]: 4.1 days | 50% [2, 11]: 8.2 days | Fin. Conc. (ppm) [2, 11]: 3.32 ppm | Onset [2, 11]: 4.1 days | Onset (d) of crystallization ([2]; control: rhoifolin 20 ppm without anthocyanin extract, citrate buffer pH 2.8, room temperature): 4.1 days | 50% Rem (d), days when only 50% of initial rhoifolin remained in solution [2, 12]: 8.2 days | Fin. Conc. (ppm) of rhoifolin in solution [2, 12]: 3.3 ppm

O=C(CCc1ccc(O)cc1)c1c(O)cc(O)cc1O [Phloretin, phloretin]
Fin. Conc. (ppm) [3, 13]: 33.8 ppm | Onset [3, 13]: 13.6 days | Fin. Conc. (ppm) [3, 14]: 33.8 ppm | Onset [3, 14]: 13.6 days

C=C1C[C@@]23CC[C@H]4[C@@](C)(CCC[C@@]4(C)C(=O)O[C@@H]4O[C@H](CO)[C@@H](O)[C@H](O)[C@H]4O)[C@@H]2CC[C@]1(O[C@@H]1O[C@H](CO)[C@@H](O)[C@H](O[C@@H]2O[C@H](CO)[C@@H](O)[C@H](O)[C@H]2O)[C@H]1O[C@@H]1O[C@H](CO)[C@@H](O)[C@H](O)[C@H]1O)C3 [Rebaudioside A, reference compound]
Fin. Conc. (ppm) [1, 15]: 34.1 ppm | Onset [1, 15]: 15.8 days | Fin. Conc. (ppm) [1, 16]: 31.0 ppm | Onset [1, 16]: 7.5 days | Fin. Conc. (ppm) [1, 17]: 35.4 ppm | Onset [1, 17]: 18.3 days | 50% [2, 18]: 13.6 days | Fin. Conc. (ppm) [2, 18]: 4.04 ppm | Onset [2, 18]: 7.5 days | 50% (d), days for 50% crystallization of rhoifolin [2, 19]: 18.8 days | Fin. Conc. (ppm) [2, 19]: 5.96 ppm | Onset [2, 19]: 10.8 days
